O=c1c2ccccc2sc2ccccc12
Conditions | solubility (mole fraction)
in 1,4-dioxane, 292.15 K | 0.00919
in 1,4-dioxane, 297.05 K | 0.01
in 1,4-dioxane, 302.05 K | 0.0109
in 1,4-dioxane, 305.05 K | 0.0115
in 1,4-dioxane, 307.95 K | 0.0121
in 1,4-dioxane, 311.15 K | 0.0127
in 1,4-dioxane, 313.85 K | 0.0134
in 1,4-dioxane, 316.85 K | 0.0141
in 1,4-dioxane, 319.35 K | 0.0146
in 1,4-dioxane, 322.55 K | 0.0153
in 1,4-dioxane, 326.55 K | 0.0163
in 1,4-dioxane, 331.55 K | 0.0175
in 1,4-dioxane, 335.95 K | 0.0186
in 2-butanone, 292.15 K | 0.00309
in 2-butanone, 297.05 K | 0.00398
in 2-butanone, 301.95 K | 0.00441
in 2-butanone, 306.65 K | 0.00519
in 2-butanone, 311.25 K | 0.00604
in 2-butanone, 316.15 K | 0.00696
in 2-butanone, 321.25 K | 0.00805
in 2-butanone, 326.55 K | 0.00947
in 2-butanone, 331.55 K | 0.0111
in 2-butanone, 335.95 K | 0.0124
in THF, 292.15 K | 0.00867
in THF, 297.05 K | 0.0101
in THF, 301.95 K | 0.0114
in THF, 306.65 K | 0.0129
in THF, 311.25 K | 0.0147
in THF, 316.15 K | 0.0167
in THF, 321.25 K | 0.0189
in THF, 326.55 K | 0.0213
in THF, 331.55 K | 0.024
in THF, 335.95 K | 0.0274
in acetone, 292.15 K | 0.00191
in acetone, 297.05 K | 0.00225
in acetone, 302.05 K | 0.00265
in acetone, 305.05 K | 0.00293
in acetone, 307.95 K | 0.00317
in acetone, 311.15 K | 0.00356
in acetone, 313.85 K | 0.00389
in acetone, 316.85 K | 0.00407
in acetone, 319.35 K | 0.00456
in acetone, 322.55 K | 0.00492
in acetone, 326.55 K | 0.0055
in acetonitrile, 292.15 K | 0.000466
in acetonitrile, 297.05 K | 0.000614
in acetonitrile, 302.05 K | 0.000806
in acetonitrile, 305.05 K | 0.000947
in acetonitrile, 307.95 K | 0.0011
in acetonitrile, 311.15 K | 0.00132
in acetonitrile, 313.85 K | 0.00147
in acetonitrile, 316.85 K | 0.0017
in acetonitrile, 319.35 K | 0.00192
in acetonitrile, 322.55 K | 0.00225
in acetonitrile, 326.55 K | 0.0027
in acetonitrile, 331.55 K | 0.00336
in acetonitrile, 335.95 K | 0.00411
in dichloromethane, 292.15 K | 0.00692
in dichloromethane, 297.05 K | 0.00849
in dichloromethane, 301.95 K | 0.00981
in dichloromethane, 306.65 K | 0.0114
in dichloromethane, 311.25 K | 0.0134
in ethanol, 292.15 K | 0.000194
in ethanol, 297.05 K | 0.000289
in ethanol, 302.05 K | 0.000428
in ethanol, 305.05 K | 0.000544
in ethanol, 307.95 K | 0.000657
in ethanol, 311.15 K | 0.000847
in ethanol, 313.85 K | 0.00103
in ethanol, 316.85 K | 0.00126
in ethanol, 319.35 K | 0.00153
in ethanol, 322.55 K | 0.00189
in ethanol, 326.55 K | 0.00247
in ethanol, 331.55 K | 0.00342
in ethanol, 335.95 K | 0.00452
in ethyl acetate, 292.15 K | 0.00273
in ethyl acetate, 297.05 K | 0.00319
in ethyl acetate, 302.05 K | 0.00371
in ethyl acetate, 305.05 K | 0.00405
in ethyl acetate, 307.95 K | 0.00444
in ethyl acetate, 311.15 K | 0.00485
in ethyl acetate, 313.85 K | 0.00525
in ethyl acetate, 316.85 K | 0.00565
in ethyl acetate, 319.35 K | 0.00608
in ethyl acetate, 322.55 K | 0.00655
in ethyl acetate, 326.55 K | 0.00732
in ethyl acetate, 331.55 K | 0.0083
in ethyl acetate, 335.95 K | 0.00924
in isopropanol, 292.15 K | 0.000395
in isopropanol, 297.05 K | 0.000539
in isopropanol, 302.05 K | 0.000733
in isopropanol, 305.05 K | 0.000877
in isopropanol, 307.95 K | 0.00106
in isopropanol, 311.15 K | 0.00126
in isopropanol, 313.85 K | 0.00145
in isopropanol, 316.85 K | 0.00172
in isopropanol, 319.35 K | 0.00198
in isopropanol, 322.55 K | 0.00234
in isopropanol, 326.55 K | 0.00288
in isopropanol, 331.55 K | 0.00371
in isopropanol, 335.95 K | 0.00461
in methanol, 292.15 K | 0.000163
in methanol, 297.05 K | 0.000225
in methanol, 301.95 K | 0.000284
in methanol, 306.65 K | 0.000316
in methanol, 311.25 K | 0.0004
in methanol, 316.15 K | 0.000469
in methanol, 321.25 K | 0.00062
in methanol, 326.55 K | 0.000788
in methanol, 331.55 K | 0.000921
in methanol, 335.95 K | 0.00106
in n-propanol, 292.15 K | 0.000546
in n-propanol, 297.05 K | 0.00061
in n-propanol, 301.95 K | 0.000782
in n-propanol, 306.65 K | 0.000892
in n-propanol, 311.25 K | 0.00114
in n-propanol, 316.15 K | 0.00134
in n-propanol, 321.25 K | 0.00175
in n-propanol, 326.55 K | 0.00214
in n-propanol, 331.55 K | 0.00251
in n-propanol, 335.95 K | 0.00317
in toluene, 292.15 K | 0.00373
in toluene, 297.05 K | 0.00456
in toluene, 302.05 K | 0.00554
in toluene, 305.05 K | 0.00624
in toluene, 307.95 K | 0.0069
in toluene, 311.15 K | 0.00782
in toluene, 313.85 K | 0.00858
in toluene, 316.85 K | 0.0096
in toluene, 319.35 K | 0.0103
in toluene, 322.55 K | 0.0116
in toluene, 326.55 K | 0.0134
in toluene, 331.55 K | 0.0158
in toluene, 335.95 K | 0.0181

Source: BigSolDB 2.1
